Test [1] deals with foreign-body (sponge) granuloma in rats. The experiment in a line: Experimental granuloma induced by foreign body, weight of the granulomas. It is filed as in vivo, Wistar rats. As to conditions: Rattus norvegicus, po, 240 h, 10 days after implantation, Table XIb, read-out: decrease in the weight of the granulomas. The procedure:
(§1) This test consists in studying the subacute cellular phase which is developed in the 8 days which follow the implantation of a foreign body, a sponge of non-resorbable plastic, in the dorsal subcutaneous connective tissue in rats.
(§2) The animals used are Wistar rats weighing 120-140 g and of the same origin, maintained under the same conditions of housing throughout the treatment (8 days).
(§3) The compounds of the invention are administered orally, in a gum suspension, in the morning in a fasted state, using an oesophageal tube.
(§4) In this experiment, on the one hand a histological study of the granulomas is performed by sampling on day 8 (results recorded in Table XIa), and on the other hand a study of the weight of the granulomas was performed 10 days after the implantation (results recorded in Table XIb).

The test system is the same in test [2]. The test is described as follows: Experimental granuloma induced by foreign body, histological study. The test is classed as in vivo, Wistar rats. The settings on record: for histological study of the granuloma (inflammatory connective / granulation tissue): second experiment, day 8, Table XIa. The procedure: as §1
The granulomas formed are removed 8 days after the implantation; a histological study is carried out after fixing the tissue and staining sections with hematein/ eosin. The observation is more especially concerned with the cell population of the primary phase of the formation of the granulation tissue: the reticulohistocytic cells, lymphocytes and more especially the macrophages.
as §2, §3
After 8 days of treatment, the rats are sacrificed by decapitation and the granulomas removed and prepared for the purpose of histological examination.
The experiment conditions are as follows:
The animals are distributed in batches of 10;
Each test product is administered at 2 doses, of 50 and 100 mg, respectively, to 2 batches of 10 animals;
Ketoprofen is used by way of reference product at the same 2 doses and under the same conditions; and
A batch of 10 control animals receives no treatment.
as §4

In test [3] the test system is pain threshold of brewer's yeast inflamed rat hind foot. The test is described as follows: Randall and Sellitto's test (analgesic activity). It is filed as in vivo. The procedure: Inflammation increases the sensitivity to pain, in particular to pressure, and analgesics raise the threshold of the sensitivity.
The inflammation is obtained by injecting 0.1 ml of a 20% strength aqueous suspension of brewer's yeast under the plantar aponeurosis of one of the hind feet. […] The pain threshold is assessed in terms of the force necessary and sufficient to initiate a characteristic reaction of withdrawing the foot.
The sensitivity to pain of the inflamed foot reaches a plateau 4 hours after the injection of the brewer's yeast, and then remains stable until the 6th hour. The pain threshold of the inflamed foot in control rats weighing 140 g is reached for pressures of 50 to 60 g, whereas it is around 160 g for the intact foot.
The action of the substance administered orally to series of 10 rats is expressed in terms of the percentage increase in the mean pain threshold, compared with that measured in the rats of a control series of 10 animals which have not received a compound of the invention.
The test products are administered orally (stomach tube) one hour before the injection of brewer's yeast.
The comparative compound used is ketoprofen.

Test [4] has as its system rat hind foot kaolin-induced arthritis. The test is described as follows: Kaolin-induced arthritis test, second experiment, acute phase (volume of the foot at the 8th hour). The test is classed as in vivo. The settings on record: po, 8 h, Table IXa; for change in vivo at 25 mg/kg / change in vivo at 50 mg/kg / change in vivo at 100 mg/kg: 8th hour, read-out: percentage significant decrease in the volume of the treated foot; for ED50: foot volume, read-out: 50% active dose. How it is done:
(§5) The […] of 0.05 ml of a sterile 10% strength suspension of kaolin into the metatarsal flexor sheath of the hind foot of a rat initially induces an oedematous reaction. An inflammatory arthritis then forms.
(§6) The early oedematous reaction appears from the first hour, and reaches its maximum between the fourth hour and the sixth hour. This is the manifestation of interest. The assessment of the volume of the foot enables the action of substances on the oedematous reaction to be studied. The measurements are carried out using a Giono and Chevilard plethysmometer.
(§7) The test products are administered orally (stomach tube) one hour before the injection of the kaolin.
(§8) In a second experiment, a more elaborate study was performed in order to ascertain the effect of the products, on the one hand on the acute phase of the inflammatory reaction (measured by the volume of the foot at the 8th hour), and on the other hand on the chronic phase (activity measured by the weight of the foot at the 12th hour).
As in the previous experiment, ketoprofen was used as the comparative product:
The results are expressed as a percentage significant decrease in the volume of the treated foot compared with the controls.

Test [5] has the same test system. The experiment in a line: Kaolin-induced arthritis test, second experiment, chronic phase (weight of the foot at the 12th hour). The test is classed as in vivo. The settings on record: po, 12 h, Table IXb; for change in vivo at 25 mg/kg / change in vivo at 50 mg/kg / change in vivo at 100 mg/kg: 12th hour, read-out: percentage significant decrease in the weight of the treated foot; for ED50: foot weight, read-out: 50% active dose. The procedure: as §5, §7, §8
As in the previous experiment, ketoprofen was used as the comparative product: […]

In test [6] the test system is biosynthesis of leukotrienes B4 (LTB4), human polymorphonuclear leukocytes. The test is described as follows: Biosynthesis of LTB4, isomers and oxidized metabolites in human polymorphonuclear leukocytes. As to conditions: Leukocyte, second experiment, read-out: Percentage inhibition of LTB4 formation. It is filed as cell-based. How it is done: Polymorphonuclear leukocytes are isolated from human blood and used during the 6 hours following the withdrawal. The viability of the cells is checked by trypan blue exclusion.
5×10^6 cells are incubated for 10 minutes at 37° C. in the presence of the test product dissolved in DMSO, and are stimulated with ionophore A 23187 (Galbiochem, 10 μM) in PBS buffer at pH 7.4, Ca^2+ and Mg^2+ =1 μM.
100 ng of prostaglandin B2 (PGB2), dissolved in methanol, are added at the end of the reaction to act as an internal standard.
On centrifugation, the culture supernatant is withdrawn. The latter is retrieved under argon and stored at -80° C. until analysed by HPLC.
This analysis is carried out by injecting 250 μl onto a 5 μm ODS ultrasphere column (Beckmann), with a gradient of acetonitrile (20-80%) in water, at pH 7.4.
The amounts of the different products which absorb at 269 nm, i.e. leukotrienes B4 (LTB4), isomers of LTB4 and oxidized metabolites of LTB4, are estimated by comparison with the internal standard.
The test product is used at a concentration of 40 μM.
They are expressed either as a percentage inhibition, or as a percentage increase in the production of LTB4, isomers of LTB4 and oxidized metabolites of LTB4 (designated by +).
The experimental model is the same as that described in Section 2.1. Other products are tested by comparison with the compound of the invention no. 1574, used as a control.

Test [7] concerns rat hind foot carragheenin-induced oedema. The experiment in a line: Carragheenin-induced oedema test. The test is classed as in vivo. As to conditions: 3 h, read-out: percentage inhibition of the inflammation; for change in vivo at 25 mg/kg: 25 mg/kg oral; for change in vivo at 50 mg/kg: 50 mg/kg oral; for change in vivo at 100 mg/kg: 100 mg/kg oral. How it is done:
In this test, 10 rats are used per test compound of the invention. Control batches of 10 rats also receive either the comparative compound (ketoprofen) or exclusively an NaCl solution.
The compounds of the invention are administered orally (stomach tube) one hour before the injection of carragheenin.
The carragheenin is suspended at a concentration of 1% in a 0.9% isotonic sodium chloride solution. The volume injected into the rat's foot is 0.20 ml.
The volume of the foot is measured before the injection and 3 hours later. The antagonistic effect of the products towards carragheenin is reflected in the inhibition of the volume of the oedema compared with control rats. The latter receive only isotonic NaCl solution under identical conditions.

The test system of test [8] is rat hind foot kaolin-induced oedema. The experiment in a line: Kaolin-induced arthritis test, first experiment (decrease in inflammation, foot volume). The settings on record: 1 h before kaolin, Table IX, read-out: percentage decrease in the inflammation. The test is classed as in vivo. How it is done:
as §5, §6, §7
The results are expressed as a percentage decrease in the inflammation in the treated animals compared with a control series of animals.
The batches are of 10 animals per dose and 10 control animals.
The figures shown represent the mean of 10 animals.

Where [9] appears, read: 25 mg/kg oral, second experiment, Table XIIa, read-out: percentage increase in the mean pain threshold.
[10] abbreviates: 50 mg/kg oral, second experiment, Table XIIa, read-out: percentage increase in the mean pain threshold.
[11] abbreviates: 100 mg/kg oral, second experiment, Table XIIa, read-out: percentage increase in the mean pain threshold.

The values below come from patent US4980349A, “Sulphonamides derived from diarylmethanes, the processes for preparing them and pharmaceutical compositions containing them” (SANOFI, priority 1986, dated 1990).

Molecules are shown by their SMILES. Read-outs that look alike come from different tables or passages of the source.

On to `O=C(O)CCCCCCCCCCCNS(=O)(=O)c1ccc(Cl)cc1C(=O)c1ccccc1Cl` [Compound 1755], for which the change in vivo at 25 mg/kg in test [1] was -45%; in test [3] (setting [9]), 40%; in test [4], -48 ± 5%; in test [5], -45%; in test [7] (second experiment, Table Xa) it was -45%. For the same molecule, the change in vivo at 50 mg/kg in test [1] is -50%; in test [3] (setting [10]) it was 50%; in test [4] it was -50 ± 5%; in test [5], -55%; in test [7] (second experiment, Table Xa) it was -52%. Also, the change in vivo at 100 mg/kg is -55% in test [1]; 55% in test [3] (setting [11]); -55 ± 5% in test [4]; -58% in test [5]; -55% in test [7] (second experiment, Table Xa). Further, the “histological study of the granuloma (inflammatory connective / granulation tissue)” value in test [2] is “Granuloma poorly developed”. The ED50 in test [4] and in test [5] was 25 mg/kg throughout. The inhibition (as a rule, the change of the read-out against control, counted positive when it falls) at 40 µM in test [6] was 100%.
For the molecule `O=C(O)CCCCCCCCCCNS(=O)(=O)c1ccc(Cl)c(C(=O)c2ccc(Cl)cc2)c1` [Compound 1761], the change in vivo at 25 mg/kg is -25% in test [1]; 40% in test [3] (setting [9]); -38 ± 5% in test [4]; -40 ± 5% in test [5]; -30% in test [7] (second experiment, Table Xa). Moreover, the change in vivo at 50 mg/kg in test [1] is -30%; in test [3] (setting [10]), 45%; in test [4], -45 ± 5%; in test [5], -45 ± 5%; in test [7] (second experiment, Table Xa) it was -35%. Besides, the change in vivo at 100 mg/kg in test [1] is -45%; in test [3] (setting [11]), 50%; in test [4], -50 ± 5%; in test [5] it was -50 ± 5%; in test [7] (second experiment, Table Xa) it was -45%. The “histological study of the granuloma (inflammatory connective / granulation tissue)” value in test [2] is reported as “Diminished production of inflammatory granulation”. Further, the ED50 in test [4] and in test [5] was 100 mg/kg in each case. In addition, the inhibition at 40 µM in test [6] came to 100%.
With `CC(C(=O)O)c1cccc(C(=O)c2ccccc2)c1` (stereo not drawn) [Ketoprofen, ketoprofen, reference compound], in test [2] (both doses (50 and 100 mg/kg) oral, 8 days, Table XI), the “histological study of the granuloma” value is given as “very substantial decrease”. Besides, the change in vivo at 25 mg/kg in test [3] (po, read-out: percentage increase in the mean pain threshold, 25 mg/kg oral, first experiment, Table XII) was 22%; in test [3] (po, read-out: percentage increase in the mean pain threshold, 25 mg/kg oral, second experiment, Table XIIa) it was 50%; in test [8] (25 mg/kg oral), -30%; in test [7] (po, first experiment, Table X), -25%. Further, the change in vivo at 50 mg/kg in test [3] (po, read-out: percentage increase in the mean pain threshold, 50 mg/kg oral, first experiment, Table XII) is 55%; in test [3] (po, read-out: percentage increase in the mean pain threshold, 50 mg/kg oral, second experiment, Table XIIa) it was 55%; in test [8] (50 mg/kg oral), -51%; in test [7] (po, first experiment, Table X), -45%. Besides, the change in vivo at 100 mg/kg was 78% in test [3] (po, read-out: percentage increase in the mean pain threshold, 100 mg/kg oral, first experiment, Table XII); 58% in test [3] (po, read-out: percentage increase in the mean pain threshold, 100 mg/kg oral, second experiment, Table XIIa); -73% in test [8] (100 mg/kg oral); -65% in test [7] (po, first experiment, Table X).
